Reference: patent publication US9254341B2, “Methods of manufacture of pteroyl-amino acid-fluorescent dyes” (On Target Laboratories, LLC, priority 2013, dated 2016)
“Also recorded” adds a separate entry of the source.

Legend:
[1] = biological target: T1, folate receptors (Homo sapiens, UniProt P15328); test: Competitive binding with [3H] folic acid on KB cells that overexpress FR-alpha; settings: for Kd: read-out: dissociation constant (Kd); for Relative binding affinity: relative affinity of folic acid=1, molar ratio required to displace 50% of [3H] folic acid
T1 construct: KB cells that overexpress FR-α were seeded in 24-well (100,000 cells/well) Falcon plates; endogenous in cells; host or cells: KB cells (ATCC), grown in folate-free RPMI 1640
T1 sequence (P15328 25-234): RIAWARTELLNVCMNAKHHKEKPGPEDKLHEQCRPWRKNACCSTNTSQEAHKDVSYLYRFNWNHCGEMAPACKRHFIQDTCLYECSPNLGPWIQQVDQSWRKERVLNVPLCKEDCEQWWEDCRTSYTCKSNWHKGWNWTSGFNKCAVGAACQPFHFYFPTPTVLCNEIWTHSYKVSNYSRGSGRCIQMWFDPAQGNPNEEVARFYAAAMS
Experimental: (§1) KB cells (a human nasopharyngeal cell line) were obtained from American type culture collection (Rockville, Md.) and grown as a monolayer using folate free 1640 RPMI medium containing (Gibco, N.Y.) 10% heat-inactivated fetal bovine serum (Atlanta Biological, Ga.) and 1% penicillin streptomycin (Gibco, N.Y.) in a 5% carbon dioxide: 95% air-humidified atmosphere at 37° C. for at least six passages before they were used for the assays.
KB cells that overexpress FR-α were seeded in 24-well (100,000 cells/well) Falcon plates (BD Biosciences, Calif.) and allowed to form monolayers over a period of 12 hours. […] After incubating for 1 hour at 37° C., cells were rinsed with PBS (3×0.5 mL, Gibco, N.Y.) to remove any unbound radioactive materials. After adding 0.25 M sodium hydroxide (0.5 mL) and incubating for 12 hours at 4° C., cells were transferred into individual scintillation vials containing Ecolite scintillation cocktail (3.0 mL, MP Biomedicals, Ohio) and counted in a liquid scintillation analyzer (Packard). The relative binding affinities were calculated using a plot of % cell bound radioactivity versus the log concentration of the test article using GraphPad Prism 4.

[2] = system: ovarian cancer malignant lesions; settings: human ovarian cancer patients, intra-operative; cited from earlier work
[3] = Stability of OTL-0038 lyophilized product, achiral HPLC; assay type: physicochemical; settings: for Achiral HPLC: Lyophilization 5 mg per ml, 2 ml fill, Water, 1 month; for loss of the lyophilized product: 40° C.; for stability of the lyophilized product: first month
From the text: (§2) Stability data of Pte-L Tyrosine-S0456 (OTL-0038):

[4] = system: KB tumor xenografts (folate receptor positive); test: Whole body imaging and tissue biodistribution in mice bearing folate receptor-positive tumor xenografts; assay type: in vivo; settings: nude mice, KB tumors, 10 nmol intravenously, 2.5 hours
Experimental: as §1
Athymic female nude (nu/nu) mice (5 weeks old, 18-20 g) were purchased from Harlan Laboratories (Indianapolis, Ind.) and maintained on gamma-irradiated folate-deficient special diet (Teklad, Wis.) for at least 2 weeks before the start of the study. […]
Seven-week-old female nu/nu mice were inoculated subcutaneously with KB cells (1.0×10^6/mouse in folate free RPMI 1640 medium) on the shoulder. Growth of the tumors was measured in perpendicular directions every 2 days using a caliper (body weights were monitored on the same schedule), and the volumes of the tumors were calculated as 0.5×L×W^2 (L=longest axis and W=axis perpendicular to L in millimeters). […]
(§3) Following whole body imaging, animals were dissected and selected tissues (heart, lung, liver, spleen, kidneys, stomach, small intestine, large intestine, muscle, skin, tumor) were analyzed for fluorescence activity using IVIS imager as before. […]

[5] = system: KB tumor xenografts (folate receptor positive); test: Comparative whole body imaging and tissue biodistribution with folate derived near IR agents; assay type: in vivo; settings: nude mice, KB tumors
Experimental: as §1
Athymic female nude mice (5 weeks old, 18-20 g) were purchased from Harlan Laboratories (Indianapolis, Ind.) and maintained on gamma-irradiated folate-deficient special diet (Teklad, Wis.) for at least 2 weeks before the start of the study. Animals were housed 5/cage in a barrier, pathogen-free cloaked rack. […]
Seven-week-old female nu/nu mice were inoculated subcutaneously with KB cells (1.0×10^6/mouse in folate free RPMI 1640 medium) on the shoulder. Growth of the tumors was measured In perpendicular directions every 2 days using a caliper (body weights were monitored on the same schedule), and the volumes of the tumors were calculated as 0.5×L×[…] (L=longest axis and W=axis perpendicular to L in millimeters). […]
as §3

[6] = Stability of OTL-0038 liquid, achiral HPLC; assay type: physicochemical; settings: for Achiral HPLC: Liquid 5 mg per ml, 2 ml fill, PBS, 1 month; for stability of the liquid: 5° C.
Experimental: as §2
At 40° C. the liquid lost 8.6% at 270 nm and 1% at 774 nm. At room temperature the liquid lost about 1.4% at 270 nm and 0.5% at 774 nm.

[7] = system: A549 tumor xenografts (folate receptor negative); test: Whole body imaging and biodistribution in mice bearing folate receptor-negative tumor xenografts; assay type: in vivo
Experimental: A549 cells (a alveolar basal epithelial carcinoma cell line) were obtained from American type culture collection (Rockville, Md.) and grown as a monolayer using 1640 RPMI medium containing (Gibco, N.Y.) 10% heat-inactivated fetal bovine serum (Atlanta Biological, Ga.) and 1% penicillin streptomycin (Gibco, N.Y.) in a 5% carbon dioxide: 95% air-humidified atmosphere at 37° C. for at least six passages before they were used for the assays.
Athymic female nude (nu/nu) mice (6 weeks old, 18-20 g) were purchased from Harlan Laboratories (Indianapolis, Ind.) and maintained on normal diet (Teklad, Wis.). Animals were housed 5/cage in a barrier, pathogen-free cloaked rack. Autoclaved tap water and food were given as needed. The animals were housed in a sterile environment on a standard 12 hours light-dark cycle for the duration of the study. Mice were identified individually by ear punch. All animal procedures were approved by Purdue Animal Care and Use Committee. Animal care and studies were performed according to national and international guidelines for the humane treatment of animals.
Seven-week-old female nu/nu mice were inoculated subcutaneously with A549 cells (1.0×10^6/mouse in RPMI 1640 medium) on the shoulder. Growth of the tumors was measured in perpendicular directions every 2 days using a caliper (body weights were monitored on the same schedule), and the volumes of the tumors were calculated as 0.5×L×W^2(L=longest axis and W=axis perpendicular to L in millimeters). Once tumors reached between 400 and 500 mm^3 in volume, animals (6 mice/group) were intravenously injected with 10 nmol of OTL-0038 in phosphate buffered saline (100 μL). After 2.5 h, animals were sacrificed by CO2 asphyxiation. Whole body imaging (intact tumor) experiments were then performed using a Caliper IVIS Lumina II Imaging Station with Living Image 4.0 software (PerkinElmer Inc, Mass.). Settings for imaging:-lamp level: medium; excitation: 745 nm; emission: ICG (indocyanine green); epi illumination; binning: 4 (M), FOV=12.5; f-stop=2; acquisition time=1 s.
Following whole body imaging, animals were dissected and selected tissues (heart, lung, liver, spleen, kidneys, stomach, small intestine, large intestine, muscle, skin, tumor) were analyzed for fluorescence activity using IVIS imager as before. Settings for imaging:-lamp level: medium; excitation: 745 nm; emission: ICG; epi illumination; binning: 4 (M), FOV=12.5; f-stop=2; acquisition time=1 s.

## CC1(C)C(=CC=C2CCCC(C=CC3=[N+](CCCCS(=O)(=O)[O-])c4ccc(S(=O)(=O)O)cc4C3(C)C)=C2Oc2ccc(C[C@@H](NC(=O)c3ccc(NCc4cnc5nc(N)[nH]c(=O)c5n4)cc3)C(=O)O)cc2)N(CCCCS(=O)(=O)O)c2ccc(S(=O)(=O)O)cc21 [OTL-0039, PTE-D-Tyr-S0456]
[1]; KB cells
  affinity for folate receptor, comparison in words: lower affinity for folate receptor when compared to folic acid and OTL-0038
[1]
  Kd: 81.8 nM
  Relative binding affinity: 0.09

## folate-ethelenediamine-fluorescein isothiocyanate [EC17]
[2]
  malignant lesions removed with the aid of the dye than without it: ~5 ×

## CC1(C)C(=CC=C2CCCC(C=CC3=[N+](CCCCS(=O)(=O)[O-])c4ccc(S(=O)(=O)O)cc4C3(C)C)=C2Oc2ccc(C[C@H](NC(=O)c3ccc(NCc4cnc5nc(N)[nH]c(=O)c5n4)cc3)C(=O)O)cc2)N(CCCCS(=O)(=O)O)c2ccc(S(=O)(=O)O)cc21 [OTL-0038, PTE-L-Tyr-S0456]
[3]; 5, 270 nm
  Achiral HPLC: 95.88%
[3]; 5, 774 nm
  Achiral HPLC: 94.29%
[3]; 25, 270 nm
  Achiral HPLC: 94.43%
[3]; 25, 774 nm
  Achiral HPLC: 94.05%
[3]; 40, 270 nm
  Achiral HPLC: 87.17%
[3]; 40, 774 nm
  Achiral HPLC: 93.56%
[3]; −20, 270 nm
  Achiral HPLC: 95.80%
[3]; −20, 774 nm
  Achiral HPLC: 94.59%
[3]; 270 nm
  loss of the lyophilized product: 4.5%
[3]; 774 nm
  loss of the lyophilized product: 1.1%
[3]; less than room temperature
  stability of the lyophilized product: stable at less than room temperature for the first month
[3]; room temperature
  stability of the lyophilized product: stable at the first month
[1]; KB cells
  competition with [3H] folic acid: competed well
[1]
  Kd: 10.4 nM
  Relative binding affinity: 0.71
[4]
  Whole body imaging: accumulation of fluorescence: accumulated predominantly in the folate receptor positive tumors, with no substantial fluorescence activity in the other tissues
[4]; ex vivo IVIS
  Tissue biodistribution: fluorescence in dissected tissues: highest fluorescence intensity was observed in FR-positive tumors with no accumulation in the other tissues except the kidneys; also recorded: mainly accumulated in folate receptor positive tumor xenografts and kidneys
[5]; 10 nmol
  tumor fluorescence intensity, direct comparison: brighter (higher) than the mice treated with the other folate-conjugated near IR dyes
[5]; 10 nmol intravenously, 2.5 hours
  Whole body imaging: accumulation of fluorescence: accumulated predominantly in the folate receptor positive tumors
[6]; 5, 270 nm
  Achiral HPLC: 95.88%
[6]; 5, 774 nm
  Achiral HPLC: 94.29%
[6]; 25, 270 nm
  Achiral HPLC: 94.43%
[6]; 25, 774 nm
  Achiral HPLC: 94.05%
[6]; 40, 270 nm
  Achiral HPLC: 87.17%
[6]; 40, 774 nm
  Achiral HPLC: 93.56%
[6]; −20, 270 nm
  Achiral HPLC: 95.80%
[6]; −20, 774 nm
  Achiral HPLC: 94.59%
[6]; 270 nm
  stability of the liquid: seems stable
[6]; 774 nm
  stability of the liquid: reasonably stable with a small degradation in purity
[6]; 40° C., 270 nm
  loss of the liquid: 8.6%
[6]; 40° C., 774 nm
  loss of the liquid: 1%
[6]; room temperature, 270 nm
  loss of the liquid: about 1.4%
[6]; room temperature, 774 nm
  loss of the liquid: 0.5%
[7]; A549 folate receptor negative tumors, 10 nmol, 2.5 h
  tumor uptake (ex vivo fluorescence): no fluorescence was observed in folate receptor negative tumors
[7]; conclusion of the folate receptor-negative tumor study
  in vivo specificity for folate receptor: highly specific for folate receptor
[7]; folate receptor-positive kidneys, 10 nmol, 2.5 h
  kidney uptake (ex vivo fluorescence): high kidney uptake
[7]; nude mice, A549 tumors, 10 nmol intravenously, 2.5 h
  Whole body imaging: accumulation of fluorescence: did not accumulated in the folate receptor negative tumors
